{
  "source": "paper PMC3363478",
  "about": "“Pharmacokinetics of micafungin in patients with severe burn injuries” (Critical Care, 2012)",
  "key": {"[1]": {"assay": "MCFG concentrations in the burn eschar of severe burn patients", "type": "in vivo, human", "conditions": "patients with severe burn injuries; conclusion in words", "method": "Eight severe burn patients within 14 days after injuries (M:F = 5:3, 19 to 85 years old, 35 to 85% total body surface area) were treated with MCFG (200 to 300 mg, 3.45 to 4.49 mg/kg) once daily by intravenous infusion over 1 hour. The MCFG concentrations in the plasma at the end of the initial administration of MCFG (P1), just before the second dosing (T1), at the end of the fourth dosing (P4), and just before the fifth dosing (T4) were determined, and were compared with the reported values in health volunteers. MCFG concentrations in the burn eschar at T1 and T4 were also measured."}, "[2]": {"conditions": "cited from earlier work", "method": "The plasma concentrations of MCFG per dose normalized with body weight (C/D) at P1, T1, P4, and T4 were 1.37 to 6.28, 0.51 to 1.38, 3.20 to 6.46, and 0.65 to 2.18 (μg/ml)/(mg/kg), respectively, indicating marked interindividual differences. […] The MCFG concentrations in the burn eschar of three patients at T1 and T4 were <0.1 to 3.98 and 1.10 to 14.81 μg/ml, respectively. Most of MCFG concentrations in the plasma and burn eschar were higher than the reported MIC90 of MCF ..."}},
  "note": "Numbered stars: 1 amine (or outer) side, 2 acyl side, 3 side chain; on linkers, the order of the positions; unused ones are H or OH. Bridge positions count the residues as written; N and C are the ends. Square brackets hold non-standard residues; d marks the D form. Peptide text beside a SMILES is read from it. * marks the point of attachment. hTyr(3S-OH,4S-OH,3'-OSO3H) = N[C@H](C(=O)O)[C@H](O)[C@@H](O)c1ccc(O)c(OS(=O)(=O)O)c1; Orn(4R-OH,5R-OH) = O=C([C@H](C[C@@H](O)[C@@H](O)N[*:3])N[*:1])[*:2]; Pro(3S-OH,4S-Me) = C[C@H]1CN[C@H](C(=O)O)[C@H]1O; X1 = CCCCCOc1ccc(-c2cc(-c3ccc(C(=O)*)cc3)no2)cc1; Gln(3R-OH) = NC(=O)C[C@@H](O)[C@H](N)C(=O)O; Hyp = O=C(O)[C@@H]1C[C@@H](O)CN1",
  "data": [
    {"compound": "CCCCCOc1ccc(-c2cc(-c3ccc(C(=O)N[C@H]4C[C@@H](O)[C@@H](O)NC(=O)[C@@H]5[C@@H](O)[C@@H](C)CN5C(=O)[C@H]([C@H](O)CC(N)=O)NC(=O)[C@H]([C@H](O)[C@@H](O)c5ccc(O)c(OS(=O)(=O)O)c5)NC(=O)[C@@H]5C[C@@H](O)CN5C(=O)[C@H]([C@@H](C)O)NC4=O)cc3)no2)cc1", "note": "[MCFG, Micafungin] (X1-[Orn(4R-OH,5R-OH)]T[Hyp][hTyr(3S-OH,4S-OH,3'-OSO3H)][Gln(3R-OH)][Pro(3S-OH,4S-Me)]; lactam 1-C)", "values": [
      {"measurement": "penetration into burn eschar", "setting": "[1]", "result": "capable of penetrating burn eschar"},
      {"measurement": "plasma C/D at P1, reported value in healthy volunteers", "setting": "[2]; P1 = end of the initial administration", "result": "5.7 (μg/ml)/(mg/kg)"},
      {"measurement": "plasma C/D at T1, reported value in healthy volunteers", "setting": "[2]; T1 = just before the second dosing", "result": "1.3 (μg/ml)/(mg/kg)"},
      {"measurement": "plasma C/D at T4, reported value in healthy volunteers", "setting": "[2]; T4 = just before the fifth dosing", "result": "2.1 (μg/ml)/(mg/kg)"}
    ]}
  ]
}
